Target: RbsB ribose-binding protein (Escherichia coli, UniProt P02925)
Assay: ITC with purified protein; also ~[…] °C Tm shift with […] ribose

RbsB ribose-binding protein, sequence (P02925 26-296): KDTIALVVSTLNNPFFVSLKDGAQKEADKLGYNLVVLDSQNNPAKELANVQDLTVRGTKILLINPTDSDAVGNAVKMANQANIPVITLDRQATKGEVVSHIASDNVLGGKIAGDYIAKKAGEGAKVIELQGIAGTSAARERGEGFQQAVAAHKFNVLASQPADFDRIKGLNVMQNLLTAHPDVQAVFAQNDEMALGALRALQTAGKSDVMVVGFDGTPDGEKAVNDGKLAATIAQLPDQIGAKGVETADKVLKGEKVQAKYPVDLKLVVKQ

`O=C[C@H](O)[C@H](O)[C@H](O)CO` [ribose] was tested, and the Kd was 530 nM.
